According to patent US20040087661A1, “Treatment of CNS disorders with trans 4-3(3,4-dichlorophenyl)-1,2,3,4-tetrahydro-N-methyl-1-napthalenamine” (Sepracor, Inc., priority 2002, published 2004):
Like-named read-outs stand apart in the source and are kept apart here.

Legend:
[1] = target: T1, functional uptake of norepinephrine (NE) (Rattus norvegicus, UniProt Q63380); test: Norepinephrine functional uptake assay in rat hypothalamus synaptosomes; format: biochemical; conditions: read-out: inhibition of NE uptake (no IC50 determined)
T1 construct: synaptosomes isolated at Cerep in a 0.32 M sucrose buffer from a male Wistar rat hypothalamus; tissue Cerep; host or cells: male Wistar rat hypothalamus synaptosomes
T1 sequence (Q63380 1-617): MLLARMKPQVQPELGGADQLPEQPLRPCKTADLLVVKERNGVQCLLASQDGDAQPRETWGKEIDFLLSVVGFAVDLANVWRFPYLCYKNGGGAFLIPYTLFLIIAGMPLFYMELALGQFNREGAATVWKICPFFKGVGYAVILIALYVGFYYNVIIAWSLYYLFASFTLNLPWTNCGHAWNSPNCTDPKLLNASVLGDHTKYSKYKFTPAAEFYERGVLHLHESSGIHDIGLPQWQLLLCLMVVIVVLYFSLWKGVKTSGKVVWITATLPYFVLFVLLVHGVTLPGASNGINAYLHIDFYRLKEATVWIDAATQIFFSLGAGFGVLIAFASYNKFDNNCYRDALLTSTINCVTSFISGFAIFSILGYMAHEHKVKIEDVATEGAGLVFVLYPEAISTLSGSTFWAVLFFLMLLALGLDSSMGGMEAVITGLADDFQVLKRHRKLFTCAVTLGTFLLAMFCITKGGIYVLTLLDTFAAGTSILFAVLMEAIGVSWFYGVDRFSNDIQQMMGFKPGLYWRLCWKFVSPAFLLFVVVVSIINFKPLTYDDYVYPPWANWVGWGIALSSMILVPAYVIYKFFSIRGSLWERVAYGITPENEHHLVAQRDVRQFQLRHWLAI

[2] = target: T2, functional uptake of dopamine (DA) (Rattus norvegicus, UniProt P23977); test: Dopamine functional uptake assay in rat striatum synaptosomes; format: biochemical; conditions: initial test at 10 μM in duplicate; read-out: inhibition of DA uptake (no IC50 determined)
T2 construct: synaptosomes isolated at Cerep in a 0.32 M sucrose buffer from a male Wistar rat striatum; tissue Cerep; host or cells: male Wistar rat striatum synaptosomes
T2 sequence (P23977 whole entry): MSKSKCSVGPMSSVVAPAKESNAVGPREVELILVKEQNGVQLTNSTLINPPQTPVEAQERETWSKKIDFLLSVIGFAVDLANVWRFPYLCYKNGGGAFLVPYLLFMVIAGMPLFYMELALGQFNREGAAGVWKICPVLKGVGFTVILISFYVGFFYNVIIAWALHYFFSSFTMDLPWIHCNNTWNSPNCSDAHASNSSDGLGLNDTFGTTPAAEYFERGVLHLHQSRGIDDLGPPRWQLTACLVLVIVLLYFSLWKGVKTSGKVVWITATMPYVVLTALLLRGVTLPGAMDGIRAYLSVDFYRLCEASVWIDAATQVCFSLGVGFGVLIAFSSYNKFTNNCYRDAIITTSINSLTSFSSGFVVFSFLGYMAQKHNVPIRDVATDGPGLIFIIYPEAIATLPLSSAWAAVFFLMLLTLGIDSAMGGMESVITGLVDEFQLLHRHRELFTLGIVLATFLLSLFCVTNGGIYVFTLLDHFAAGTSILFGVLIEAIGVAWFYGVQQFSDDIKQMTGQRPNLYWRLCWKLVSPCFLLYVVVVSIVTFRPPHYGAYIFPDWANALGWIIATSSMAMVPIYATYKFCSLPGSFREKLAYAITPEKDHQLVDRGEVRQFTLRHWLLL

inhibition at 10 µM ([1]; initial test at 10 μM in duplicate) | SMILES | inhibition at 10 µM [1] | inhibition at 10 µM [2]
– | CN(C)CCCN1c2ccccc2CCc2ccccc21 [imipramine] | < 50% | < 50%
– | CNCCCC1c2ccccc2C=Cc2ccccc21 [protriptyline] | – | < 50%
< 50% | Fc1ccc(C(OCCN2CCN(CCCc3ccccc3)CC2)c2ccc(F)cc2)cc1 [GBR 12909] | – | –
